Blank lines part the entries; values can stand above or below the compound they belong to.
Key:
[1] = hydrolysis of the amidine group to lactam in PBS buffer; assay type: physicochemical
Method: (§1) The hydrolytic degradation rates of benzazepine and 7-azabenzazepine compounds were directly compared in PBS (pH 7.4) at 37° C. to mimic in vivo effects and in formulation buffer to simulate storage and lifetime effects. […] The half-lives (t½) of aza-benzazepine compounds azaBa-6 and azaBz-8 were 30 days and 40 days, respectively. […] The amount of lactam is normalized for each sample at the start (to) for easier rate comparisons. The 7-aza modification is stabilizing in PBS and formulation buffer by about 5-fold relative to the corresponding benzazepine compounds.

[2] = degradation of amidine to lactam in human plasma; assay type: in vitro ADME; settings: human plasma at room temperature after 24 hours
Method: Amidine benzazepine comparator compound CBz-3 (Table 1b) degrades in PBS buffer (pH 7.4) at 40° C. to produce lactam benzazepine comparator compound CBz-5 (Table 1b) at 90% at 17 days. […] In human plasma at room temperature after 24 hours, 15% of CBz-3 degrades to CBz-5.

human TLR7 or human TLR8 = experiment: HEK Reporter Assay (TLR 7/8, receptor not separated); assay type: cell-based; settings: lactam comparator compounds
Description: It was discovered that the amidine functional group of benzazepine adjuvant compounds, moieties conjugated to antibodies as immunoconjugates (WO 2020/252294; WO 2021/067242; WO 2022/125884; WO 2022/125891; WO 2022/125904; WO 2022/125908; WO 2022/125915), undergoes hydrolysis to the lactam functional group.
(§2) HEK293 reporter cells expressing human TLR7 or human TLR8 were purchased from Invivogen and vendor protocols were followed for cellular propagation and experimentation. Briefly, cells were grown to 80-85% confluence at 5% CO2 in DMEM supplemented with 10% FBS, Zeocin, and Blasticidin. Cells were then seeded in 96-well flat plates at 4×10^4 cells/well with substrate containing HEK detection medium and immunostimulatory molecules. Activity was measured using a plate reader at 620-655 nm wavelength.

human TLR7 = biological target: T1, human TLR7 (Homo sapiens, UniProt Q9NYK1); experiment: HEK Reporter Assay, HEK293 NFKB reporter cells expressing human TLR7; assay type: cell-based
T1 construct: host or cells: HEK293 NFKB reporter cells
T1 sequence (Q9NYK1 27-1049): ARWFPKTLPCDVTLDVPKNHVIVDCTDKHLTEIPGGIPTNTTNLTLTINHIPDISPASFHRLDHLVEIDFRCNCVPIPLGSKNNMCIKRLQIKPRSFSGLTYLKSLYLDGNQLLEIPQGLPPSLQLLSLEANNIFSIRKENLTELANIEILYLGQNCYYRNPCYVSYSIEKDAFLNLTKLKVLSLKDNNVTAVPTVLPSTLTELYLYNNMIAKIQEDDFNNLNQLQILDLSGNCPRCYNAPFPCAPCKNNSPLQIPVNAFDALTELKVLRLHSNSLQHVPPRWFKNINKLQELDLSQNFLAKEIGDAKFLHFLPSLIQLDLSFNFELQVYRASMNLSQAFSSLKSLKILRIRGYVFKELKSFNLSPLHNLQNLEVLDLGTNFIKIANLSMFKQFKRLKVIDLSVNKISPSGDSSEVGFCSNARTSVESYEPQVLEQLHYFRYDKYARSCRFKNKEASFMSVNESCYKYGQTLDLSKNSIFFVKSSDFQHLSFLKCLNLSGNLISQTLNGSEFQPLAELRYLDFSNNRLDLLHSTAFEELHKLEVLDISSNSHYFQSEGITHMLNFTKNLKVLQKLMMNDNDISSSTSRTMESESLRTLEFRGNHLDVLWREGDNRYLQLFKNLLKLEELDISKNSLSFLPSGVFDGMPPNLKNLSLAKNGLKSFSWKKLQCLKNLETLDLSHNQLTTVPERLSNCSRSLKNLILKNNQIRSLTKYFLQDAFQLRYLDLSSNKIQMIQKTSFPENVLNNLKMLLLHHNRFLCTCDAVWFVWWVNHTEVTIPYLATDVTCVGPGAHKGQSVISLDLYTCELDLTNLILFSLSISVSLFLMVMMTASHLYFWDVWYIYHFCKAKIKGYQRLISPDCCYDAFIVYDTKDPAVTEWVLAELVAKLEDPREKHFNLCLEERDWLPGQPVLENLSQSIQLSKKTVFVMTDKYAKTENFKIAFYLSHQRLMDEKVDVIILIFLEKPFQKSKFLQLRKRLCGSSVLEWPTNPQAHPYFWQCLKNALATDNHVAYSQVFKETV
Method: (§3) Exemplary aza-benzazepine compounds (azaBza) of Table 1a and comparator compounds (CBz) of Table 1b were synthesized, purified, and characterized by mass spectrometry and shown to have the expected mass. Additional experimental procedures are found in the Examples. Activity against HEK293 NFKB reporter cells expressing human TLR7 or human TLR8 was measured according to Example 202.
as §2

human TLR8 = biological target: T2, human TLR8 (Homo sapiens, UniProt Q9NR97); experiment: HEK Reporter Assay, HEK293 NFKB reporter cells expressing human TLR8; assay type: cell-based; settings: read-out: EC50 against TLR8
T2 construct: host or cells: HEK293 NFKB reporter cells
T2 sequence (Q9NR97 27-1041): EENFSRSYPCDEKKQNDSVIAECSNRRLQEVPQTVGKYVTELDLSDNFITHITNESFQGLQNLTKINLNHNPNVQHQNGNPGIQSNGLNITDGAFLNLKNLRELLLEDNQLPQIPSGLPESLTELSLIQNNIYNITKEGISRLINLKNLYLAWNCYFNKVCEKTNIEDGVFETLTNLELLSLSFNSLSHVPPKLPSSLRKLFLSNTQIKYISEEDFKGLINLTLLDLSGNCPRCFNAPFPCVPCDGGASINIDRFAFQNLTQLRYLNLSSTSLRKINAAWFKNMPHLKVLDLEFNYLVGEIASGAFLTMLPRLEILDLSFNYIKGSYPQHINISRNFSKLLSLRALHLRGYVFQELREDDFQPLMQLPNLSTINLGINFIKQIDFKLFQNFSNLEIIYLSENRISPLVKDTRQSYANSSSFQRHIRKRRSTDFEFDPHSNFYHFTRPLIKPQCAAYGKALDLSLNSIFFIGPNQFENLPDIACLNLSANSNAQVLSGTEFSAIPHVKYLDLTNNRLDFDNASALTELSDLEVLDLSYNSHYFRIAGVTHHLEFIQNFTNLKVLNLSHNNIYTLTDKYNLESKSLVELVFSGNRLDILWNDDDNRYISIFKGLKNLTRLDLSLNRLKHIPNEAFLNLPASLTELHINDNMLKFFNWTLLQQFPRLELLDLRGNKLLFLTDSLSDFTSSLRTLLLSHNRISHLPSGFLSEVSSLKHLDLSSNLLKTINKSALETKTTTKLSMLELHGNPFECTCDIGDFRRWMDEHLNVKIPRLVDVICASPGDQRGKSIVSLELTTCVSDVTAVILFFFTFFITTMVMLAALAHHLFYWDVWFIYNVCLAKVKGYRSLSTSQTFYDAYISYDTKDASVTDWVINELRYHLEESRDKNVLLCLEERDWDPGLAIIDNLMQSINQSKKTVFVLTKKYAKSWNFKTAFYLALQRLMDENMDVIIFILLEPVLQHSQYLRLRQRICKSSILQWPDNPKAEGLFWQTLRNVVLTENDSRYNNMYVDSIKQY
Method: as §3, §2

[3] = hydrolysis of the amidine group to lactam in formulation buffer; assay type: physicochemical; settings: formulation buffer pH 6, 22° C.; read-out: t ½ in formulation buffer (pH 6) at 22° C. (converted)
Method: A nitrogen at the 7-position is stabilizing and slows hydrolysis in aza-benzazepine compounds with a variety of substituents at the 8-position. […] The amount of lactam is normalized for each sample at the start (to) for easier rate comparisons.
as §1

[4] = PBS (pH 7.4) at 37° C., read-out: half-lives (t½), hydrolytic degradation (converted)
[5] = PBS pH 7.4, 37° C., read-out: t ½ in PBS (pH 7.4) at 37° C. (converted)

SMILES: CCCN(OCC)C(=O)C1=Cc2ccc(-c3cnc(CN)nc3)cc2N=C(N)C1 [CBz-2, reference compound]
half-life [1, 4]: 6 days

SMILES: CCCN(OCC)C(=O)C1=Cc2ccc(-c3cnc(CNC(=O)CCOCCOCCOCCOCCOCCOCCOCCOCCOCCOCCC(=O)O)cn3)cc2N=C(N)C1 [CBz-3]
degraded to lactam (CBz-5) [2]: 15%

SMILES: CCCN(OCC)C(=O)C1=Cc2ccc(C(=O)NCCOC)cc2N=C(N)C1 [CBz-7, reference compound]
half-life [1, 4]: 8 days

SMILES: CCCN(OCC)C(=O)C1=Cc2ccc(-c3cnc(CN)nc3)cc2NC(=O)C1 [CBz-8]
activity in the HEK assay (TLR 7/8 agonist) (human TLR7 or human TLR8): inactive

SMILES: CCCN(OCCNC(=O)NC1CCC1)C(=O)C1=Cc2ccc(-c3cnc(CN)nc3)cc2NC(=O)C1 [CBz-9]
activity in the HEK assay (TLR 7/8 agonist) (human TLR7 or human TLR8): inactive

SMILES: CCCN(CCC)C(=O)C1=Cc2ccncc2N=C(N)C1 [azaBz-2]
response against TLR7 (human TLR7): no response
EC50 (human TLR8): 5.5 µM

SMILES: CCCN(OCCNC(=O)OC(C)(C)C)C(=O)C1=Cc2cnc(C(=O)O)cc2N=C(N)C1 [azaBz-3, 2-amino-4-((2-((tert-butoxycarbonyl)amino)ethoxy)(propyl)carbamoyl)-3H-pyrido[4,3-b]azepine-8-carboxylic acid]
half-life [1, 5]: 20 days
half-life [3]: 30 days

SMILES: CCCN(OCC)C(=O)C1=Cc2cnc(-c3cnc(CN)nc3)cc2N=C(N)C1 [azaBz-6, 2-amino-8-(2-(aminomethyl)pyrimidin-5-yl)-N-ethoxy-N-propyl-3H-pyrido[4,3-b]azepine-4-carboxamide]
half-life [1, 4]: 30 days
half-life [3]: 30 days

Results, then the compound that gave them:

half-life [1, 5]: 70 days
half-life [3]: 50 days
SMILES: CCCN(OCCNC(=O)OC(C)(C)C)C(=O)C1=Cc2cnc(S(=O)(=O)O)cc2N=C(N)C1 [azaBz-5]

half-life [1, 5]: 100 days
half-life [3]: 100 days
SMILES: CCCN(OCC)C(=O)C1=Cc2cnc(S(=O)(=O)NCCOC)cc2N=C(N)C1 [azaBz-7]

half-life [1, 4]: 40 days
half-life [3]: 40 days
SMILES: CCCN(OCC)C(=O)C1=Cc2cnc(S(=O)(=O)N(C)CCOC)cc2N=C(N)C1 [azaBz-8]

EC50 (human TLR7; read-out: EC50 against TLR7): 0.842 µM
EC50 (human TLR8): 0.196 µM
SMILES: CCCN(OCCNC(=O)OC(C)(C)C)C(=O)C1=Cc2ccncc2N=C(N)C1 [azaBz-24]
